From paper PMC10254852, “Design, Synthesis and Anticancer Evaluation of Nitroimidazole Radiosensitisers” (Molecules, 2023) come the findings set out here.

One data set deals with UT-SCC-74B tumours. In words: Tumour radiosensitisation: ex vivo clonogenic assay. It counts as in vivo, NIH-III mice.
The subject of a further data set is HCT116/54C tumours. The data set is described as above. It counts as in vivo, NIH-III mice.
A short description of data set [1]: Tolerability at maximum achievable dose, i.v. The following applies: i.v. injection, NIH-III mice. It counts as in vivo. The source says:
The most promising 2-nitroimidazole 34 and 5-nitroimidazole 38 compounds were selected for in vivo evaluation on the basis of solubility, in vitro cytotoxicity and radiosensitisation data. These compounds were both well tolerated by i.v. injection in NIH-III mice at their maximum achievable dose (MAD) of 2.2 mmol/kg. This MAD was also achieved for some of our earlier compounds, but only when we employed a phosphate prodrug strategy owing to their poor solubility. […] The Cmax and AUC exceeded that achieved for earlier phosphate prodrugs 9–12, but was less than 2. On this basis we advanced both morpholine analogues into in vivo radiosensitisation studies.
Specific pathogen-free six- to eight-week-old female NIH-III mice, bred in the Vernon Jansen Unit, University of Auckland, were used for animal experiments. Animals had ad libitum access to food and water and were maintained in microisolator cages on a 12 h light/dark cycle. All treatments were administered by i.v. injection at a dose of 2.2 mmol/kg and injection volume of 10 mL/kg. Compounds 2, 34 and 38 were administered as solutions in saline containing 1% DMSO or for 9–12 as solutions in saline containing 2 molar equivalents of NaHCO3. Control animals received an i.v. injection of saline at 10 mL/kg. All animal experiments were conducted under the auspices of the University of Auckland Animal Ethics Committee (approval 1781).

Another data set deals with FaDu cells. The data set can be described thus: In vitro cytotoxicity, 4 h exposure oxic/anoxic, 5-day regrowth, sulforhodamine B. The following applies: for IC50: Homo sapiens, 4 h exposure, mean ± SEM. It counts as cell-based.
The mark [2] stands for this setting: 2.2 mmol/kg i.v. 5 min prior to 10 Gy radiation, surviving fraction after radiation/surviving fraction after drug + radiation.
[3] abbreviates: 2.2 mmol/kg i.v. + 10 Gy, one-way ANOVA.
The mark [4] stands for this setting: drug alone 2.2 mmol/kg i.v., relative to untreated tumours.
[5] abbreviates: 2.2 mmol/kg i.v., 10 Gy, mechanism experiment (Figure 3).

Read-outs that look alike come from different tables or passages of the source.

One may read the IC50 as the concentration at which inhibition is half-maximal. For the molecule `O=[N+]([O-])c1nccn1CS(=O)(=O)NCCN1CCOCC1` [Compound 34], the “Sensitisation Ratio” value in the data set on UT-SCC-74B tumours (setting [2]) is recorded as 13.8; in the data set with HCT116/54C tumours (setting [2]) it was 14.9. Moreover, the “enhancement of tumour cell killing by radiotherapy (RAD vs drug + RAD)” value in the data set on UT-SCC-74B tumours (setting [3]) is reported as “significantly enhanced tumour cell killing by radiotherapy”. The “single agent cell kill” value in the data set on UT-SCC-74B tumours (setting [4]) is on record as 68.4 ± 1.2%; in the data set with HCT116/54C tumours (setting [4]), 62.3 ± 7.9%. Further, in the data set with HCT116/54C tumours (setting [3]), the “enhancement of tumour killing of radiotherapy (RAD vs drug + RAD)” value is given as “significantly enhanced the tumour killing of radiotherapy”. Moreover, the “SR, drug given 5 min before radiation” value with HCT116/54C tumours (setting [5]) is given as 9.76. In addition, the “SR, drug given 20 min after radiation” value in the data set with HCT116/54C tumours (setting [5]) was 1.49. Further, the “maximum achievable dose (MAD), well tolerated” value in data set [1] is recorded as 2.2 mmol/kg. The IC50 was 160 ± 10 µM with FaDu cells (anoxic, n = 3–4, read-out: IC50 Anoxic) and 3700 ± 100 µM with FaDu cells (oxic, n = 3–4, read-out: IC50 Oxic). The HCR in the data set with FaDu cells (IC50(oxic)/IC50(anoxic)) is given as 23.3.
